Experimental data from patent US20140323443A1, “TIGECYCLINE FORMULATIONS” (Fresenius Kabi USA, LLC, priority 2013, published 2014).

Key:
[1] = pH of a saturated solution of tigecycline in water; assay type: physicochemical
Procedure: A solid composition that includes tigecycline and arginine may further include an acid and/or a base. The pH of a saturated solution of tigecycline in water is about 8. The amount of the acid and/or base may be an amount sufficient to provide a pH in the range of from 4 to 6 when a composition containing 53 mg tigecycline is reconstituted in 5.3 mL of an aqueous carrier liquid, such as 0.9% sodium chloride injection. Preferably the amount of the acid and/or base may be an amount sufficient to provide a pH in the range of from 4.25 to 5.75, from 4.5 to 5.75, from 4.5 to 5.5, or from 4.75 to 5.25 when a composition containing 53 mg tigecycline is reconstituted in 5.3 mL of an aqueous carrier liquid. In some embodiments, hydrochloric acid and/or sodium hydroxide is used to adjust pH.

[2] = cited from earlier work
[3] = aqueous liquid at 2-8° C., water sparged and tigecycline blanketed with inert gas, for 24 hours; cited from earlier work

In the case of `CN(C)c1cc(NC(=O)CNC(C)(C)C)c(O)c2c1C[C@H]1C[C@H]3[C@H](N(C)C)C(O)=C(C(N)=O)C(=O)[C@@]3(O)C(O)=C1C2=O` [tigecycline, (4S,4aS,5aR,12aS)-9-[2-(tert-butylamino)acetamido]-4,7-bis(dimethyl-amino)-1,4,4a,5,5a,6,11,12a-octahydro-3,10,12,12a-tetrahydroxy-1,11-dioxo-2-naphthacenecarboxamide], the “pH of a saturated solution in water” value [1] is listed as “about 8”, the oral bioavailability [2] is listed as “poor” and the “amount of tigecycline converted into degradants prior to lyophilization” value [3] is listed as “below 1%”.
